Source: patent publication US20260159536A1, “AKR1C3-ACTIVATED DNA ALKYLATING AGENT, AND MEDICAL APPLICATION THEREOF” (ASCENTAWITS PHARMACEUTICALS, LTD., priority 2021, published 2026)
Where two headings read alike, the source gives them in different places.

Key:
H460 cells = test: Inhibition of H460 cancer cell proliferation (CTG, 72 h); type: cell-based; conditions: Homo sapiens, NCI-H460
Description: If not otherwise specified, IC50 values were measured by the following experimental methods:
c) The cell suspension was added to 96-well plate with 100 μL per well and 2000 cells/well of cell density.
a) Cells were plated for 24 hours, and then the compounds acted singly. 99 μL of growth medium was supplemented per well, and then 1 μL of 200× compound was added, gently shaken to ensure uniform mixing, and then placed in a 37° C., 5% CO2 incubator.
b) The cell plate was placed in the incubator for 72 hours.
b) 100 μL of CTG reagent (CelltiterGlo kit) was added to each well, the plate was placed in a rapid oscillator and shaken for 2 minutes, and then placed at room temperature for 30 minutes away from light.
c) The chemiluminescence signal value was read with Envision instrument.
The IC50 was calculated using GraphPad Prism 8 software and the IC50 (half inhibitory concentration) of the compounds was obtained using the following non-linear fitting formula: […]

NCI-H1944 = test: AKR1C3-dependent cytotoxicity, NSCLC cell line NCI-H1944; type: cell-based; conditions: Homo sapiens
Description: (§1) The tested compound was then added. The compound was dissolved in 100% DMSO at 200 times of the desired final test concentration. When the medicament was added, the compound was further diluted to 4 times of the desired final test concentration by using the complete medium. 50 μL of aliquots of the compound with specific concentration were added to the microwells containing 150 μL of medium, and then the final medicament concentration was obtained. […] The medicament was then washed. […] After the incubation was finished, the Alamar Blue was used to analyze and quantify the living cells.

NCI-H2110 = test: AKR1C3-dependent cytotoxicity, NSCLC cell line NCI-H2110; type: cell-based
Description: as §1

NCI-H1563 = test: AKR1C3-dependent cytotoxicity, NSCLC cell line NCI-H1563; type: cell-based; conditions: Homo sapiens
Description: as §1

[1] = test system: HuPrime model LI6643 human liver cancer; test: In vivo pharmacodynamics, liver cancer LI6643 PDX model (Compound A, Sorafenib, AST-3424; section 4.7); parameters: species or system BALB/c nude mice; conditions: for Tumor volume (x ± S): in mm³
Description: Experiment Instruction: BALB/c nude mice were subcutaneously inoculated with HuPrime® model LI6643 tumor blocks to establish a subcutaneous grafted tumor model of human liver cancer. […] The efficacy was evaluated according to the relative tumor inhibition rate TGI (%), and the safety was evaluated according to the change in body weight and the death of the animals.

[2] = Liver microsome stability, mouse; type: in vitro ADME; conditions: Mouse liver microsomes; with the addition of NADPH
Description: (§2) 1) Two individual experiments were performed.
(§3) All experiments were performed in duplicate.

NCI-H522 = test: AKR1C3-dependent cytotoxicity, NSCLC cell line NCI-H522; type: cell-based; conditions: Homo sapiens
Description: as §1

P-gp = target: T1, P-gp (Homo sapiens, UniProt P08183); test: P-gp substrate evaluation, MDCKII-MDR1 penetration test with or without Verapamil; type: in vitro ADME
T1 construct: expressed in transfected cells; host or cells: MDCKII-MDR1 cells
Description: The conditions of the incubator were set as 37° C., 5% CO2, and 95% of the relative humidity.
After that, the MDCKII-MDR1 cells can be used for the penetration test.
(1) MDCKII-MDR1 transwell culture plate was taken out from the incubator.
(6) The upper and lower transportations were pooled and then incubated at 37° C. for 2 h.
After the sample tubes were vortexed for 10 min, and centrifuged at 3220 g for 30 min. […] Each sample was adopted to the three parallel incubation.
Efflux Ratio was calculated by the following formula: […]
Recovery was calculated by the following formula: […]

[3] = Liver microsome stability, human; type: in vitro ADME; conditions: Human liver microsomes; with the addition of NADPH
Description: as §2, §3

CAL12T = test: AKR1C3-dependent cytotoxicity, NSCLC cell line CAL12T; type: cell-based; conditions: Homo sapiens, CAL-12T
Description: as §1

H460 cancer cells = test: H460 proliferation in the presence or absence of AKR1C3 inhibitor AST-3021 (Alamar Blue); type: cell-based, human; conditions: for IC50: Homo sapiens, NCI-H460, H460, 2 hours exposure
Description: as §1

NCIH2106 = test: AKR1C3-dependent cytotoxicity, NSCLC cell line NCIH2106; type: cell-based
Description: as §1

NCI-H23 = test: AKR1C3-dependent cytotoxicity, NSCLC cell line NCI-H23; type: cell-based; conditions: Homo sapiens
Description: as §1

[4] = Liver microsome stability, monkey; type: in vitro ADME; conditions: Monkey liver microsomes; with the addition of NADPH
Description: as §2, §3

[5] = Liver microsome stability, rat; type: in vitro ADME; conditions: Rat liver microsomes; with the addition of NADPH
Description: as §2, §3

NCIH1755 = test: AKR1C3-dependent cytotoxicity, NSCLC cell line NCIH1755; type: cell-based; conditions: Homo sapiens, NCI-H1755
Description: as §1

[6] = 0.3 mg/kg i.v. QDx5, 2 days off, 2 weeks off, QDx5, Day 21
[7] = 1.25 mg/kg i.v. QWx2, 1 week off, QWx2, Day 21
[8] = AST-3424 1 mg/kg i.v. QDx5, 2 days off, 2 weeks off, QDx5, Day 21

T1 sequence (P08183 whole entry): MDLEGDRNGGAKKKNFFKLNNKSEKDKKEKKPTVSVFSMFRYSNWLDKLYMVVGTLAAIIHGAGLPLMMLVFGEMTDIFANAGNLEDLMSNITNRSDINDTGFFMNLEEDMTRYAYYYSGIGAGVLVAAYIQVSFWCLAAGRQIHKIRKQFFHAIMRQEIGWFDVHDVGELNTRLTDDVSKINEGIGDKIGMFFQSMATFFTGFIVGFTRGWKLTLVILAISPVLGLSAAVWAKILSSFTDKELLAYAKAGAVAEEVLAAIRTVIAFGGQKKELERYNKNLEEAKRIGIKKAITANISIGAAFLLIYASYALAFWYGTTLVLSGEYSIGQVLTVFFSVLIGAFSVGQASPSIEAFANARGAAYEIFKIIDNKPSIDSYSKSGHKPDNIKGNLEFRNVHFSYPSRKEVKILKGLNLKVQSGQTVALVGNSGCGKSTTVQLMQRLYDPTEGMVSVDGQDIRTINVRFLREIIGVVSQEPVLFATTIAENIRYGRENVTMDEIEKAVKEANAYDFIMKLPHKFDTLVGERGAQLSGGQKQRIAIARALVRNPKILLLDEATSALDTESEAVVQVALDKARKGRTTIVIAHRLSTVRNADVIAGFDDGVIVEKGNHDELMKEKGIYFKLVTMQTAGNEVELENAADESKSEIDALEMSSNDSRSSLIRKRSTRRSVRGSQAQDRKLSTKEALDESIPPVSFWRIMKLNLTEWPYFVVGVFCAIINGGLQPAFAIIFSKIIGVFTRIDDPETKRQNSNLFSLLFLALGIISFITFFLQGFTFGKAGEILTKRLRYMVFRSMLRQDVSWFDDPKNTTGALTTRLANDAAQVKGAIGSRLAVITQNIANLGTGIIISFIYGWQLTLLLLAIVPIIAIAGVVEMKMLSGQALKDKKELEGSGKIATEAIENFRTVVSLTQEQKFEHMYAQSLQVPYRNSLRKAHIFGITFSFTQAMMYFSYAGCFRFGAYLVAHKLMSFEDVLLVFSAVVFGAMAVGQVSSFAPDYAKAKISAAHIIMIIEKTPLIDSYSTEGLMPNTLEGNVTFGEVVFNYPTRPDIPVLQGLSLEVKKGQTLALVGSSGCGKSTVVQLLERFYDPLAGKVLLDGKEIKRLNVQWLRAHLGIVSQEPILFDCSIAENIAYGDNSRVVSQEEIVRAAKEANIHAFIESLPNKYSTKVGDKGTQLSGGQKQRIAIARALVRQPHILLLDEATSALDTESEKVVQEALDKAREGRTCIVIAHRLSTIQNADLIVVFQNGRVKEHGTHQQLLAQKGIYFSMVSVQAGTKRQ

## C[C@@H](OP(=O)(N1CC1)N1CC1)c1ccc([N+](=O)[O-])c(Oc2cccc(C(=O)N(C)C)c2)c1 [AST-3424]
H460 cells
  IC50: 0.11 nM
NCI-H1944
  IC50: 2.3 nM
NCI-H2110
  IC50: 1.1 nM
NCI-H1563
  IC50: 2.5 nM
[1]; [6]
  Relative tumor volume (x ± S): 1.92 ± 0.2
  T/C (%): 39.84%
  TGI (%): 60.16%
  Tumor volume (x ± S): 250.47 ± 44.00
[1]; 0.3 mg/kg i.v., Day 0
  Tumor volume: 124.74 mm^3
[1]; 0.3 mg/kg i.v., Day 3
  Tumor volume: 210.50 mm^3
[1]; 0.3 mg/kg i.v., Day 7
  Tumor volume: 242.31 mm^3
[1]; 0.3 mg/kg i.v., Day 10
  Tumor volume: 227.43 mm^3
[1]; 0.3 mg/kg i.v., Day 14
  Tumor volume: 208.00 mm^3
[1]; 0.3 mg/kg i.v., Day 17
  Tumor volume: 223.43 mm^3
[1]; 0.3 mg/kg i.v., Day 21
  Tumor volume: 250.47 mm^3
[1]; 0.3 mg/kg i.v., Day 24
  Tumor volume: 302.15 mm^3
[1]; 0.3 mg/kg i.v., Day 28
  Tumor volume: 386.93 mm^3
[1]; [7]
  Relative tumor volume (x ± S): 1.36 ± 0.22
  T/C (%): 28.14%
  TGI (%): 71.86%
  Tumor volume (x ± S): 169.64 ± 41.89
[1]; 1.25 mg/kg i.v., Day 0
  Tumor volume: 124.62 mm^3
[1]; 1.25 mg/kg i.v., Day 3
  Tumor volume: 205.56 mm^3
[1]; 1.25 mg/kg i.v., Day 7
  Tumor volume: 217.23 mm^3
[1]; 1.25 mg/kg i.v., Day 10
  Tumor volume: 216.04 mm^3
[1]; 1.25 mg/kg i.v., Day 14
  Tumor volume: 187.94 mm^3
[1]; 1.25 mg/kg i.v., Day 17
  Tumor volume: 176.52 mm^3
[1]; 1.25 mg/kg i.v., Day 21
  Tumor volume: 169.64 mm^3
[1]; 1.25 mg/kg i.v., Day 24
  Tumor volume: 174.54 mm^3
[1]; 1.25 mg/kg i.v., Day 28
  Tumor volume: 146.31 mm^3
[1]; [8]
  Relative tumor volume (x ± S): 0.66 ± 0.22
  T/C (%): 13.68%
  TGI (%): 86.32%
  Tumor volume (x ± S): 75.89 ± 21.82
[1]; AST-3424 1 mg/kg i.v., Day 0
  Tumor volume: 124.32 mm^3
[1]; AST-3424 1 mg/kg i.v., Day 3
  Tumor volume: 156.70 mm^3
[1]; AST-3424 1 mg/kg i.v., Day 7
  Tumor volume: 144.82 mm^3
[1]; AST-3424 1 mg/kg i.v., Day 10
  Tumor volume: 110.44 mm^3
[1]; AST-3424 1 mg/kg i.v., Day 14
  Tumor volume: 90.12 mm^3
[1]; AST-3424 1 mg/kg i.v., Day 17
  Tumor volume: 97.62 mm^3
[1]; AST-3424 1 mg/kg i.v., Day 21
  Tumor volume: 75.89 mm^3
[1]; AST-3424 1 mg/kg i.v., Day 24
  Tumor volume: 89.34 mm^3
[1]; AST-3424 1 mg/kg i.v., Day 28
  Tumor volume: 98.43 mm^3
[2]
  Percentage remaining after 30 minutes: 3.1%
NCI-H522
  IC50: > 1000 nM
P-gp; MDCKII-MDR1, with and without Verapamil
  P-gp substrate: Pgp substrate
P-gp; dog, MDCK-MDR1
  Papp A→B at 2 h: 1.95 ×10⁻⁶ cm/s
  Papp B→A at 2 h: 34.5 ×10⁻⁶ cm/s
P-gp; dog, MDCK-MDR1, Verapamil 0 μM, read-out: Recovery (%) AP-BL
  recovery at 2 h: 79.1%
P-gp; dog, MDCK-MDR1, Verapamil 0 μM, read-out: Recovery (%) BL-AP
  recovery at 2 h: 90.6%
P-gp; dog, MDCK-MDR1, with Verapamil 100 μM, Verapamil 100 μM, read-out: Recovery (%) AP-BL
  recovery at 2 h: 92.6%
P-gp; dog, MDCK-MDR1, with Verapamil 100 μM, Verapamil 100 μM, read-out: Recovery (%) BL-AP
  recovery at 2 h: 96.3%
[3]
  Percentage remaining after 30 minutes: 10.65%
CAL12T
  IC50: 29.1 nM
H460 cancer cells; AST-3021 3 micromolar, read-out: IC50 With the addition of AST-3021
  IC50: 44.9 nM
H460 cancer cells; no AKR1C3 inhibitor, read-out: IC50 Without the addition of AST-3021
  IC50: 0.349 nM
H460 cancer cells; IC50 with AST-3021 over IC50 without
  Fold: 128.71
NCIH2106
  IC50: > 1000 nM
NCI-H23
  IC50: > 1000 nM
[4]
  Percentage remaining after 30 minutes: 0.03%
[5]
  Percentage remaining after 30 minutes: 8.79%
NCIH1755
  IC50: 8.2 nM
